Test results published in the supplement of paper PMC12137928.
Counter-ions that a name gives are not always drawn.

Test system: HCT116
Conditions: 72 h
Method in brief: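 Each well of the 1536-well plates received 250 HCT116 cells, which attached over 5 h. Luminescence was measured with CellTiter-Glo, scaled with vehicle as 0% and positive control as -100%, and pattern-corrected. A four-parameter Hill fit yielded IC50 and maximal efficacy.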

| Compound | IC50 cell viability (ICRF193 0 nM) | IC50 cell viability (ICRF193 200 nM) |
| --- | --- | --- |
| CCCCCCCCCCCCCCCC(=O)O[C@@H]1CC(C)=C(/C=C/C(C)=C/C=C/C(C)=C/C=C/C=C(C)/C=C/C=C(C)/C=C/C2=C(C)C[C@@H](OC(=O)CCCCCCCCCCCCCCC)CC2(C)C)C(C)(C)C1 [Physalien] | > 45.8 µM | > 45.8 µM |
| CC(C)(C)CC(C)(C)c1ccc(O)cc1 [4-(1,1,3,3-Tetramethylbutyl)phenol] | > 45.8 µM | > 45.8 µM |
| NS(=O)(=O)c1cc2c(cc1Cl)NCNS2(=O)=O [Hydrochlorothiazide] | > 45.8 µM | > 45.8 µM |
| C[C@@H]1C[C@H]2[C@@H]3C[C@H](F)C4=CC(=O)C=C[C@]4(C)[C@@]3(Cl)[C@@H](O)C[C@]2(C)[C@H]1C(=O)COC(=O)C(C)(C)C [Clocortolone pivalate] | > 45.8 µM | > 45.8 µM |
| COC(=O)c1cc(Cl)ccc1NS(=O)(=O)C(F)(F)F [Amidoflumet] | > 45.8 µM | > 45.8 µM |
| CC(=O)OCC1=C(C(=O)O)N2C(=O)[C@@H](NC(=O)CSc3ccncc3)[C@H]2SC1 [Cephapirin sodium] | > 45.8 µM | > 45.8 µM |
| CCC(=O)O[C@]1(C(=O)COC(C)=O)CC[C@H]2[C@@H]3CCC4=CC(=O)CC[C@]4(C)[C@H]3[C@@H](O)C[C@@]21C [HYDROCORTISONE ACEPONATE] | > 45.8 µM | > 45.8 µM |
| c1ccc2c(c1)CCCC2C1=NCCN1 (stereo not drawn) [Tetrahydrozoline HCl] | > 45.8 µM | > 45.8 µM |
| CCN1CCN(c2cc3c(cc2F)c(=O)c(C(=O)O)cn3C2CC2)CC1 [Enrofloxacin] | > 45.8 µM | > 45.8 µM |
| NC(=O)NC1NC(=O)NC1=O (stereo not drawn) [Allantoin] | > 45.8 µM | > 45.8 µM |
| CNC(C)C(O)c1ccc(O)cc1 (stereo not drawn) | > 45.8 µM | > 45.8 µM |
| C1N2CN3CN1CN(C2)C3 [Methenamine] | > 45.8 µM | > 45.8 µM |
| CC(=O)OCC(=O)[C@@]1(O)[C@H](C)C[C@H]2[C@@H]3C[C@H](F)C4=CC(=O)C=C[C@]4(C)[C@@]3(F)[C@@H](O)C[C@@]21C [Flumethasone acetate] | > 45.8 µM | > 45.8 µM |
| CNC(C)CC1CCCCC1 (stereo not drawn) [Propylhexedrine (hydrochloride)] | > 45.8 µM | > 45.8 µM |
| C[C@]12CC[C@H]3[C@@H](CCC4=C(O)C(=O)CC[C@@H]43)[C@@H]1CC[C@@H]2OC(=O)CCC1CCCC1 [Oxabolone cipioncate] | > 45.8 µM | > 45.8 µM |
| CN(C)[C@@H]1C(O)=C(C(N)=O)C(=O)[C@@]2(O)C(O)=C3C(=O)c4c(O)ccc(Cl)c4[C@@](C)(O)[C@H]3C[C@@H]12 [Chlortetracycline HCl] | > 45.8 µM | > 45.8 µM |
| NC(=O)NO [Hydroxyurea] | > 45.8 µM | > 45.8 µM |
| CC(C)C[C@H]1C(=O)N2CCC[C@H]2[C@]2(O)O[C@](NC(=O)[C@@H]3C[C@@H]4c5cccc6[nH]cc(c56)C[C@H]4N(C)C3)(C(C)C)C(=O)N12 [Dihydroergocriptine] | > 45.8 µM | > 45.8 µM |
| CCOC(=O)c1ccc(NC(=O)CN2CCCCC2)cc1 [Sulcaine] | > 45.8 µM | > 45.8 µM |
| NC[C@@H]1O[C@H](O[C@H]2[C@@H](O)[C@H](O[C@@H]3[C@@H](O)[C@H](N)C[C@H](N)[C@H]3O[C@H]3O[C@H](CO)[C@@H](O)[C@H](O)[C@H]3N)O[C@@H]2CO)[C@H](N)[C@@H](O)[C@@H]1O [PAROMOMYCIN SULFATE] | > 45.8 µM | > 45.8 µM |
| CCC(C)C(C)(COC(N)=O)COC(N)=O (stereo not drawn) [Mebutamate] | > 45.8 µM | > 45.8 µM |
| O=C1NS(=O)(=O)c2ccccc21 [Saccharin] | > 45.8 µM | > 45.8 µM |
| CC1(C)NC(=O)N(c2ccc([N+](=O)[O-])c(C(F)(F)F)c2)C1=O [Nilutamide] | > 45.8 µM | > 45.8 µM |
| CCCCCCC(=O)O[C@H]1CC[C@H]2[C@@H]3CCc4cc(O)ccc4[C@H]3CC[C@]12C [Estradiol enanthate] | > 45.8 µM | > 45.8 µM |
| CC(=O)OC(C)C[N+](C)(C)C (stereo not drawn) [Methacholine chloride] | > 45.8 µM | > 45.8 µM |
| NC(=O)c1cn(Cc2c(F)cccc2F)nn1 [Rufinamide] | > 45.8 µM | > 45.8 µM |
| CC(=O)O[C@H]1CC[C@@]2(C)C(=CC[C@@H]3[C@@H]2CC[C@]2(C)C(c4cccnc4)=CC[C@@H]32)C1 [Abiraterone acetate] | > 45.8 µM | > 45.8 µM |

Continued, values first:

| IC50 cell viability (ICRF193 0 nM) | IC50 cell viability (ICRF193 200 nM) | Compound |
| --- | --- | --- |
| > 45.8 µM | > 45.8 µM | Cc1cccc(C)c1NC(=O)c1cc(S(N)(=O)=O)c(Cl)cc1O [Xipamide] |
| > 45.8 µM | > 45.8 µM | C=C1c2cccc(O)c2C(=O)C2=C(O)[C@]3(O)C(=O)C(C(N)=O)=C(O)[C@@H](N(C)C)[C@@H]3[C@@H](O)[C@H]12 [Methacycline hydrochloride] |
| > 45.8 µM | > 45.8 µM | COC(=O)[C@@H]1[C@H]2C[C@H]3c4[nH]c5ccccc5c4CCN3C[C@@H]2CC[C@@H]1O [Yohimbine] |
| > 45.8 µM | > 45.8 µM | COc1cnc(NS(=O)(=O)c2ccc(N)cc2)nc1 [Sulfameter] |
| > 45.8 µM | > 45.8 µM | O=S1(=O)OC(c2ccc(O)cc2)(c2ccc(O)cc2)c2ccccc21 [Phenol red] |
| > 45.8 µM | > 45.8 µM | C=CCc1ccccc1OCC(O)CNC(C)C (stereo not drawn) [Alprenolol] |
| > 45.8 µM | > 45.8 µM | CC1CCCC(C)N1CCCC(O)(c1ccccc1)c1ccccn1 (stereo not drawn) [Pirmenol] |
| > 45.8 µM | > 45.8 µM | CCOC(=O)COc1ccc2c(C)c(CCN(CC)CC)c(=O)oc2c1 [Chromonar hydrochloride] |
| > 45.8 µM | > 45.8 µM | CC(C)Cn1cnc2c(N)nc3ccccc3c21 [Imiquimod] |
| > 45.8 µM | > 45.8 µM | CCOC(=O)[C@H](C)C[C@@H](Cc1ccc(-c2ccccc2)cc1)NC(=O)CCC(=O)O [AHU-377] |
| > 45.8 µM | > 45.8 µM | COc1ccccc1OCC(O)COC(N)=O (stereo not drawn) [Methocarbamol] |
| > 45.8 µM | > 45.8 µM | CC1CCCCN1CCCOC(=O)c1ccccc1 (stereo not drawn) [Piperocaine hydrochloride] |
| > 45.8 µM | > 45.8 µM | CCOc1cc([C@@H](CS(C)(=O)=O)N2C(=O)c3cccc(NC(C)=O)c3C2=O)ccc1OC |
| > 45.8 µM | > 45.8 µM | CCOc1nc2cccc(C(=O)O)c2n1Cc1ccc(-c2ccccc2-c2noc(=O)[nH]2)cc1 [Azilsartan (TAK-536)] |
| > 45.8 µM | > 45.8 µM | C=C1CCN([C@H](C)[C@](O)(Cn2cncn2)c2ccc(F)cc2F)CC1 [Efinaconazole] |
| > 45.8 µM | > 45.8 µM | COc1ccc(CC(C)NCC(O)c2ccc(O)c(NC=O)c2)cc1 (stereo not drawn) [Formoterol hemifumarate] |
| > 45.8 µM | > 45.8 µM | CC(C)(C)CC(C)(C)c1cc(Cc2cc(C(C)(C)CC(C)(C)C)cc(-n3nc4ccccc4n3)c2O)c(O)c(-n2nc3ccccc3n2)c1 |
